In this test the target is T1, SIRT1 (Homo sapiens, UniProt Q96EB6).
T1 sequence (Q96EB6 1-747): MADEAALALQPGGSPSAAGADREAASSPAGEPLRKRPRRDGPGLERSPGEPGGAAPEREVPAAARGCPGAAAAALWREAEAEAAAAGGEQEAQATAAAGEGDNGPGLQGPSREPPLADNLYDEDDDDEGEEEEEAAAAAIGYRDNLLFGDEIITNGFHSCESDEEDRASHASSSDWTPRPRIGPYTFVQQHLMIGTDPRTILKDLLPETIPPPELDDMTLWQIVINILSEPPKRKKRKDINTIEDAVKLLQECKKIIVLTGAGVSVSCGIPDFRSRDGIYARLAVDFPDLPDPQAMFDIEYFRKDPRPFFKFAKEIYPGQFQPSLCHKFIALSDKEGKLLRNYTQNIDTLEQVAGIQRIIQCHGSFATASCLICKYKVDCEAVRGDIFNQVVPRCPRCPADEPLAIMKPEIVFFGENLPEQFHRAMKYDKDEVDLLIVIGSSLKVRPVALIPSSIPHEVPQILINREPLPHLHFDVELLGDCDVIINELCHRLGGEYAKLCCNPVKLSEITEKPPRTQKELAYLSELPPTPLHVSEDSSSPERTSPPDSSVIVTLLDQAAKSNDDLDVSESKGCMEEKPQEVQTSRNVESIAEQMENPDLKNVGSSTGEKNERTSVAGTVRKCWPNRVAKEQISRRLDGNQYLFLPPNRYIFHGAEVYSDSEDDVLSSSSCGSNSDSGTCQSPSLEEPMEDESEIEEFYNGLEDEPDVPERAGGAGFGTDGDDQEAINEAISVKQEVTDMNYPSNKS
The test can be described thus: Mass spectrometry based assay of SIRT1 activity (deacetylation of a p53-based acetylated peptide). It counts as biochemical. The settings on record: 10 nM SIRT1, 0.5 μM peptide substrate, 120 μM βNAD+, 25 minutes at 25° C.; for Emax: read-out: % FOLD ACT. (percent maximum fold activation). From the text:
A mass spectrometry based assay was used to identify modulators of SIRT1 activity. The mass spectrometry based assay utilizes a peptide having 20 amino acid residues as follows: Ac-EE-K(biotin)-GQSTSSHSK(Ac)NleSTEG-K(5TMR)-EE-NH2 (SEQ ID NO: 1) wherein K(Ac) is an acetylated lysine residue and Nle is a norleucine. The peptide is labeled with the fluorophore 5TMR (excitation 540 nm/emission 580 nm) at the C-terminus. The sequence of the peptide substrate is based on p53 with several modifications. In addition, the methionine residue naturally present in the sequence was replaced with the norleucine because the methionine may be susceptible to oxidation during synthesis and purification.
The mass spectrometry assay is conducted as follows: 0.5 μM peptide substrate and 120 μM βNAD^+ is incubated with 10 nM SIRT1 for 25 minutes at 25° C. in a reaction buffer (50 mM Tris-acetate pH 8, 137 mM NaCl, 2.7 mM KCl, 1 mM MgCl2, 5 mM DTT, 0.05% BSA). Test compounds may be added to the reaction as described above. […] After the 25 minute incubation with SIRT1, 10 μL of 10% formic acid is added to stop the reaction. Reactions are sealed and frozen for later mass spec analysis. Determination of the mass of the substrate peptide allows for precise determination of the degree of acetylation (i.e. starting material) as compared to deacetylated peptide (product).
A control for inhibition of sirtuin activity is conducted by adding 1 μL of 500 mM nicotinamide as a negative control at the start of the reaction (e.g., permits determination of maximum sirtuin inhibition). A control for activation of sirtuin activity is conducted using 10 nM of sirtuin protein, with 1 μL of DMSO in place of compound, to determine the amount of deacetylation of the substrate at a given timepoint within the linear range of the assay. This timepoint is the same as that used for test compounds and, within the linear range, the endpoint represents a change in velocity.
For the above assay, SIRT1 protein was expressed and purified as follows. […] The protein was expressed by induction with 1 mM IPTG as an N-terminal His-tag fusion protein at 18° C. overnight and harvested at 30,000×g. Cells were lysed with lysozyme in lysis buffer (50 mM Tris-HCl, 2 mM Tris[2-carboxyethyl]phosphine (TCEP), 10 μM ZnCl2, 200 mM NaCl) and further treated with sonication for 10 min for complete lysis. The protein was purified over a Ni-NTA column (Amersham) and fractions containing pure protein were pooled, concentrated and run over a sizing column (Sephadex S200 26/60 global). The peak containing soluble protein was collected and run on an Ion-exchange column (MonoQ). Gradient elution (200 mM-500 mM NaCl) yielded pure protein. This protein was concentrated and dialyzed against dialysis buffer (20 mM Tris-HCl, 2 mM TCEP) overnight. The protein was aliquoted and frozen at −80° C. until further use.
Sirtuin modulating compounds that activated SIRT1 were identified using the assay described above and are shown below in Table 1 for compounds of Formula (III)). The EC1.5 values represent the concentration of test compounds that result in 150% activation of SIRT1. The EC1.5 values for the activating compounds in Table 1 are represented by A (EC1.5<10.0 μM), B (EC1.5 10-25 μM), C (EC1.5>25 μM). The percent maximum fold activation is represented by A (Fold activation>200%) or B (Fold Activation<200%); “NT” means not tested; “ND” mean not determinable.

On to `CC(NC(=O)c1cscn1)c1cccc(-c2cccc(C(F)(F)F)c2)n1` (stereo not shown) [Compound 203], for which the “EC1.5 (concentration of test compound that results in 150% activation of SIRT1)” value is “B (EC1.5 10-25 μM)” and the Emax is under 200%.

`O=C(NC1CCCc2ccc(-c3cccnc3)nc21)c1cnccn1` (stereo not shown) [Compound 246]: the “EC1.5 (concentration of test compound that results in 150% activation of SIRT1)” value is on record as “C (EC1.5>25 μM)”.

Regarding `O=C(NC1CCOc2ccc(-c3cccc(C(F)(F)F)c3)nc21)c1cnccn1` (stereo not shown) [Compound 224], the “EC1.5 (concentration of test compound that results in 150% activation of SIRT1)” value is reported as “C (EC1.5>25 μM)”.

On to `O=C(NC1CCCc2ccc(-c3cccc(C(F)(F)F)c3)nc21)c1ccc(F)c(Cl)c1` (stereo not shown) [Compound 225], for which the “EC1.5 (concentration of test compound that results in 150% activation of SIRT1)” value is listed as “C (EC1.5>25 μM)”.

Regarding `O=C(Nc1ccccn1)C1CCCc2ccc(-c3cccc(C(F)(F)F)c3)nc21` (stereo not shown) [Compound 284], the “EC1.5 (concentration of test compound that results in 150% activation of SIRT1)” value is on record as “C (EC1.5>25 μM)”.

For the compound `O=C(Nc1nc2ccccc2s1)C1CCCc2ccc(-c3cccc(C(F)(F)F)c3)nc21` (stereo not shown) [Compound 295], the “EC1.5 (concentration of test compound that results in 150% activation of SIRT1)” value is recorded as “C (EC1.5>25 μM)”.

On to `O=C(NC1CCCc2ccc(-c3ccncc3)nc21)c1cnccn1` (stereo not shown) [Compound 247], for which the “EC1.5 (concentration of test compound that results in 150% activation of SIRT1)” value is recorded as “C (EC1.5>25 μM)”.

As for `Cc1cncc(-c2ccc3c(n2)C(NC(=O)c2cnccn2)CCC3)c1` (stereo not shown) [Compound 200, N-(2-(5-methylpyridin-3-yl)-5,6,7,8-tetrahydroquinolin-8-yl)pyrazine-2-carboxamide], the “EC1.5 (concentration of test compound that results in 150% activation of SIRT1)” value is reported as “C (EC1.5>25 μM)”.

As to `O=C(NC1CCCc2ccc(-c3cccc(C(F)(F)F)c3)nc21)c1cccc(N2CCOCC2)n1` (stereo not shown) [Compound 236], the “EC1.5 (concentration of test compound that results in 150% activation of SIRT1)” value is listed as “A (EC1.5<10.0 μM)” and the Emax was over 200%.

With `O=C(NC1CCCc2ccc(-c3cccc(C(F)(F)F)c3)nc21)c1cccnc1` (stereo not shown) [Compound 232], the “EC1.5 (concentration of test compound that results in 150% activation of SIRT1)” value is listed as “C (EC1.5>25 μM)” and the Emax is under 200%.

Turning to `O=C(NC1CCCc2ccc(-c3cccc(C(F)(F)F)c3)nc21)c1cc[nH]n1` (stereo not shown) [Compound 229], the “EC1.5 (concentration of test compound that results in 150% activation of SIRT1)” value is given as “B (EC1.5 10-25 μM)” and the Emax was under 200%.

In the case of `O=C(NC1CCCc2ccc(-c3cccc(C(F)(F)F)c3)nc21)c1cccc(N2CCCC2)n1` (stereo not shown) [Compound 235], the “EC1.5 (concentration of test compound that results in 150% activation of SIRT1)” value is “A (EC1.5<10.0 μM)” and the Emax was under 200%.

Turning to `O=C(NC1CCCc2ccc(-c3cccc(N4CCCC4)c3)nc21)c1cnccn1` (stereo not shown) [Compound 260], the “EC1.5 (concentration of test compound that results in 150% activation of SIRT1)” value was “C (EC1.5>25 μM)”.

Turning to `O=C(NC1CCCc2ccc(-c3cccc(C(F)(F)F)c3)nc21)c1ccnc(OCC(O)CO)c1` (stereo not shown) [Compound 244], the “EC1.5 (concentration of test compound that results in 150% activation of SIRT1)” value is on record as “A (EC1.5<10.0 μM)” and the Emax was over 200%.

Turning to `CC(NC(=O)c1ccccc1)c1cccc(-c2ccccc2)n1` (stereo not shown) [Compound 217], the “EC1.5 (concentration of test compound that results in 150% activation of SIRT1)” value is given as “C (EC1.5>25 μM)”.

As for `O=C(NC1CCCc2ccc(-c3cccc(OC(F)(F)F)c3)nc21)c1cnccn1` (stereo not shown) [Compound 252], the “EC1.5 (concentration of test compound that results in 150% activation of SIRT1)” value is reported as “B (EC1.5 10-25 μM)” and the Emax was over 200%.

Take `CC(C(=O)Nc1cnccn1)c1cccc(-c2cccc(C(F)(F)F)c2)n1` (stereo not shown) [Compound 214, N-2-pyrazinyl-2-{6-[3-(trifluoromethyl)phenyl]-2-pyridinyl}propanamide]: the “EC1.5 (concentration of test compound that results in 150% activation of SIRT1)” value was “C (EC1.5>25 μM)”.

In the case of `O=C(Nc1cccc(CN2CCOCC2)n1)C1CCCc2ccc(-c3cccc(C(F)(F)F)c3)nc21` (stereo not shown) [Compound 297], the “EC1.5 (concentration of test compound that results in 150% activation of SIRT1)” value is on record as “C (EC1.5>25 μM)”.

As to `O=C(NC1CCOc2ccc(-c3cccc(C(F)(F)F)c3)nc21)c1ccnc(CN2CCOCC2)c1` (stereo not shown) [Compound 223], the “EC1.5 (concentration of test compound that results in 150% activation of SIRT1)” value was “C (EC1.5>25 μM)”.

Take `CC(NC(=O)c1ccccc1)c1cccc(-c2cccc(C(F)(F)F)c2)n1` (stereo not shown) [Compound 215]: the “EC1.5 (concentration of test compound that results in 150% activation of SIRT1)” value is on record as “C (EC1.5>25 μM)”.

In the case of `CC(C(=O)Nc1cccnc1)c1cccc(-c2cccc(C(F)(F)F)c2)n1` (stereo not shown) [Compound 210], the “EC1.5 (concentration of test compound that results in 150% activation of SIRT1)” value is “C (EC1.5>25 μM)”.

Take `O=C(NC1CCCc2ccc(-c3cccc(C(F)(F)F)c3)nc21)c1cnccn1` (stereo not shown) [Compound 206, N-(2-(3-(trifluoromethyl)phenyl)-5,6,7,8-tetrahydroquinolin-8-yl)pyrazine-2-carboxamide]: the “EC1.5 (concentration of test compound that results in 150% activation of SIRT1)” value is on record as “A (EC1.5<10.0 μM)” and the Emax is over 200%.

On to `O=C(NC1CCCc2ccc(-c3cccc(C(F)(F)F)c3F)nc21)c1cnccn1` (stereo not shown) [Compound 256], for which the “EC1.5 (concentration of test compound that results in 150% activation of SIRT1)” value is listed as “C (EC1.5>25 μM)”.

As to `O=C(Nc1ccnc(N2CCCC2)c1)C1CCCc2ccc(-c3cccc(N4CCOCC4)c3)nc21` (stereo not shown) [Compound 278], the “EC1.5 (concentration of test compound that results in 150% activation of SIRT1)” value is on record as “A (EC1.5<10.0 μM)” and the Emax is under 200%.

For `O=C(NC1CCCc2ccc(-c3cccc(C(F)(F)F)c3)nc21)c1cccc2c1OC(F)(F)O2` (stereo not shown) [Compound 226], the “EC1.5 (concentration of test compound that results in 150% activation of SIRT1)” value was “C (EC1.5>25 μM)”.

On to `Cc1cnc(C(=O)NC2CCCc3ccc(-c4cccc(C(F)(F)F)c4)nc32)cn1` (stereo not shown) [Compound 234], for which the “EC1.5 (concentration of test compound that results in 150% activation of SIRT1)” value is on record as “A (EC1.5<10.0 μM)” and the Emax is over 200%.

Consider `O=C(NC1CCOCC1)C1CCCc2ccc(-c3cccc(C(F)(F)F)c3)nc21` (stereo not shown) [Compound 287], for which the “EC1.5 (concentration of test compound that results in 150% activation of SIRT1)” value is reported as “C (EC1.5>25 μM)”.

Regarding `CC(NC(=O)c1cccnc1)c1cccc(-c2cccc(C(F)(F)F)c2)n1` (stereo not shown) [Compound 212], the “EC1.5 (concentration of test compound that results in 150% activation of SIRT1)” value is “A (EC1.5<10.0 μM)” and the Emax is over 200%.

For the compound `CC(NC(=O)c1cccc(CN2CCCC2)n1)c1cccc(-c2cccc(C(F)(F)F)c2)n1` (stereo not shown) [Compound 219], the “EC1.5 (concentration of test compound that results in 150% activation of SIRT1)” value was “C (EC1.5>25 μM)”.

`O=C(NC1CCCc2ccc(-c3cccc(C(F)(F)F)c3)nc21)c1ccnc(CN2CCCC2)c1` (stereo not shown) [Compound 239]: the “EC1.5 (concentration of test compound that results in 150% activation of SIRT1)” value is “C (EC1.5>25 μM)”.

Regarding `Cc1ccc(-c2ccc3c(n2)C(NC(=O)c2cnccn2)CCC3)cn1` (stereo not shown) [Compound 248], the “EC1.5 (concentration of test compound that results in 150% activation of SIRT1)” value is listed as “C (EC1.5>25 μM)”.

On to `O=C(Nc1nccs1)C1CCCc2ccc(-c3cccc(C(F)(F)F)c3)nc21` (stereo not shown) [Compound 279], for which the “EC1.5 (concentration of test compound that results in 150% activation of SIRT1)” value is recorded as “C (EC1.5>25 μM)”.

For the origin of these results see patent publication US20110263564A1, “PYRIDINE, BICYCLIC PYRIDINE AND RELATED ANALOGS AS SIRTUIN MODULATORS” (Sirtris Pharmaceuticals, Inc., priority 2008, published 2011).
